According to patent US12421249B2, “Inhibitors of APOL1 and methods of using same” (Vertex Pharmaceuticals Incorporated, priority 2020, dated 2025):

Legend:
APOL1 G1 = target: T1, APOL1 G1 (Homo sapiens, UniProt O14791, I384M/S342G); experiment: Trypanosoma brucei brucei Lysis Assay Using APOL1 Recombinant Protein (AlamarBlue viability readout); type: cell-based; conditions: Trypanosome Assay; for IC50: IP50 = IC50 for cell proliferation, read-out: Trypanosome Assay IP50; for Emax: read-out: Trypanosome Assay Max Activity (%)
T1 sequence (O14791 28-398 S342G/I384M): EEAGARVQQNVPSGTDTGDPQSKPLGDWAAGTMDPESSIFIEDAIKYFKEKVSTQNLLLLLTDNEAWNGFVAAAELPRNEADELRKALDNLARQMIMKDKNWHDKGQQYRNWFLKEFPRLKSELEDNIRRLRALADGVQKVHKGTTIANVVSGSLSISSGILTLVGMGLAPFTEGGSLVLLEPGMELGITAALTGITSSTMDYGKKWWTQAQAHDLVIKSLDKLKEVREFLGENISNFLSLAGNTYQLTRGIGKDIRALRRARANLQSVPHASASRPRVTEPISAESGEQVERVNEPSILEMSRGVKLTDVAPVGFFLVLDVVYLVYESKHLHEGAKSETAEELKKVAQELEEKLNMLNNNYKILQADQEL
Outline: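 Percent viability comes from AlamarBlue (resazurin→resorufin) fluorescence interpolated on a standard curve of known parasite numbers, with no-APOL1 wells as 100%. Parasites (Lister 427 bloodstream form, 120,000/well, serum-free assay medium) meet 0.05 μg/mL APOL1 (~EC90). Compounds span a 10-point series, 0.1% DMSO final.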

APOL1 = target: T2, APOL1 (Homo sapiens, UniProt O14791); experiment: Multi-Tox Assay (MultiTox-Fluor Multiplex Cytotoxicity Assay in tet-inducible APOL1 T-REx-HEK293 cells; Table 46 does not say which APOL1 variant G0/G1/G2); type: cell-based; conditions: APOL1 variant not given; for IC50: IP50 = IC50 for cell proliferation
T2 sequence (O14791 1-398 S342G/I384M): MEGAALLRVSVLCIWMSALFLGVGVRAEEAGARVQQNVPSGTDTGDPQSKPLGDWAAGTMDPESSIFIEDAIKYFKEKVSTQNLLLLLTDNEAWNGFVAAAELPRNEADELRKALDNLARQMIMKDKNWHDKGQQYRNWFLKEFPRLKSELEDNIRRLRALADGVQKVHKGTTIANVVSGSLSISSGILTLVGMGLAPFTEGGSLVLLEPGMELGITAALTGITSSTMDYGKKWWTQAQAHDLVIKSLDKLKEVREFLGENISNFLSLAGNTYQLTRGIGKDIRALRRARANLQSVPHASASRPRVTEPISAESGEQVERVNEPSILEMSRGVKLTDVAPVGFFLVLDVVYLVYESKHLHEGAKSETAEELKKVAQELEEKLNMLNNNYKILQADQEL

Row | Compound | IC50 (APOL1 G1) [µM] | Emax (APOL1 G1) [%] | Multi-Tox Assay Max Activity (%) (APOL1) | IC50 (APOL1) [µM]
1 | CCC(O)Cn1cc([C@@H]2C[C@]3(C[C@H](C)N2)OCCc2cc(Cl)sc23)nn1 (mixture of isomers) [Compound 111] | 0.05 to 0.5 | 98.5 | 99.3 | < 0.05
2 | C[C@H]1C[C@@]2(C[C@@H](c3ccnc(O)c3)N1)OCCc1cc(Cl)sc12 (racemic) [Compound 112] | 0.05 to 0.5 | 112 | 100.0 | < 0.05
3 | CC(=O)Nc1cccc([C@@H]2C[C@]3(C[C@H](C)N2)OCCc2cc(Cl)sc23)c1 (racemic) [Compound 113] | 0.05 to 0.5 | 97 | 100.0 | < 0.05
4 | C[C@H]1C[C@@]2(C[C@@H](c3cccc(NS(C)(=O)=O)c3)N1)OCCc1cc(Cl)sc12 (racemic) [Compound 115] | 0.05 to 0.5 | 100 | 99.3 | < 0.05
5 | Cc1nccc([C@@H]2C[C@]3(C[C@H](C)N2)OCCc2cc(Cl)sc23)n1 (racemic) [Compound 116] | 0.05 to 0.5 | 101 | – | < 0.05
6 | C[C@H]1C[C@@]2(C[C@@H](c3cnn4ccccc34)N1)OCCc1cc(Cl)sc12 (racemic) [Compound 117] | < 0.05 | 101 | 99.0 | < 0.05
7 | C[C@H]1C[C@@]2(C[C@@H](c3ccn(C)n3)N1)OCCc1cc(Cl)sc12 (racemic) [Compound 118] | 0.05 to 0.5 | 98 | 99.3 | < 0.05
8 | C[C@H]1C[C@@]2(C[C@@H](c3cc(C4CC4)n[nH]3)N1)OCCc1cc(Cl)sc12 (racemic) [Compound 120] | 0.05 to 0.5 | 91.5 | 99.0 | < 0.05
9 | C[C@H]1C[C@@]2(C[C@@H](c3ccc[nH]c3=O)N1)OCCc1cc(Cl)sc12 (racemic) [Compound 121] | 0.05 to 0.5 | 97.5 | 99.0 | < 0.05
10 | C[C@H]1C[C@@]2(C[C@@H](c3ccc(C(F)(F)F)nc3)N1)OCCc1cc(Cl)sc12 (racemic) [Compound 123] | < 0.05 | 104 | 100.0 | < 0.05
11 | C[C@H]1C[C@@]2(C[C@@H](c3cn(C)c(=O)n(C)c3=O)N1)OCCc1cc(Cl)sc12 (racemic) [Compound 124] | 0.05 to 0.5 | 104 | 99.3 | 0.05 to 0.5
12 | Cc1cc(O)ncc1[C@@H]1C[C@]2(C[C@H](C)N1)OCCc1cc(Cl)sc12 (racemic) [Compound 125] | 0.05 to 0.5 | 103 | 99.7 | < 0.05
13 | Cc1cccc([C@@H]2C[C@]3(C[C@H](C)N2)OCCc2cc(Cl)sc23)n1 (racemic) [Compound 126] | 0.05 to 0.5 | 115 | 99.4 | 0.05 to 0.5
14 | C[C@H]1C[C@@]2(C[C@@H](c3ccnc(N(C)C)n3)N1)OCCc1cc(Cl)sc12 (racemic) [Compound 127] | 0.05 to 0.5 | 107 | 99.3 | 0.05 to 0.5
15 | CCc1nc([C@@H]2C[C@]3(C[C@H](C)N2)OCCc2cc(Cl)sc23)c[nH]1 (racemic) [Compound 128] | 0.05 to 0.5 | 107 | 99.3 | 0.05 to 0.5
16 | C[C@H]1C[C@@]2(C[C@@H](c3cnc(N4CCN(C)CC4)nc3)N1)OCCc1cc(Cl)sc12 (racemic) [Compound 129] | < 0.05 | 88 | 100.0 | 0.05 to 0.5

Row | Compound | IC50 (APOL1 G1) [µM] | Emax (APOL1 G1) [%] | Multi-Tox Assay Max Activity (%) (APOL1) | IC50 (APOL1) [µM]
17 | C[C@H]1C[C@@]2(C[C@@H](c3c[nH]c(C4CC4)n3)N1)OCCc1cc(Cl)sc12 (racemic) [Compound 130] | 0.05 to 0.5 | 102 | 99.0 | 0.05 to 0.5
18 | C[C@H]1C[C@@]2(C[C@@H](c3cc4n(n3)CCCO4)N1)OCCc1cc(Cl)sc12 (racemic) [Compound 131] | 0.05 to 0.5 | 111 | 99.3 | 0.05 to 0.5
19 | Cc1nocc1[C@@H]1C[C@]2(C[C@H](C)N1)OCCc1cc(Cl)sc12 (racemic) [Compound 132] | 0.05 to 0.5 | 91.5 | 99.3 | 0.05 to 0.5
20 | C[C@H]1C[C@@]2(C[C@@H](c3cn(CC(N)=O)nn3)N1)OCCc1cc(Cl)sc12 (racemic) [Compound 133] | 0.05 to 0.5 | 111 | 99.7 | 0.05 to 0.5
21 | Cc1cnc([C@@H]2C[C@]3(C[C@H](C)N2)OCCc2cc(Cl)sc23)o1 (racemic) [Compound 134] | 0.05 to 0.5 | 96.7 | 99.2 | 0.05 to 0.5
22 | Cc1c([C@@H]2C[C@]3(C[C@H](C)N2)OCCc2cc(Cl)sc23)cnn1C (racemic) [Compound 136] | 0.05 to 0.5 | 100 | – | 0.05 to 0.5
23 | COc1cc(O)cc([C@@H]2C[C@]3(C[C@H](C)N2)OCCc2cc(Cl)sc23)c1 (racemic) [Compound 137] | 0.05 to 0.5 | 84.5 | 98.7 | 0.05 to 0.5
24 | Cc1cc([C@@H]2C[C@]3(C[C@H](C)N2)OCCc2cc(Cl)sc23)nc(N(C)C)n1 (racemic) [Compound 138] | 0.05 to 0.5 | 104 | 98.0 | 0.05 to 0.5
25 | Cc1ccnc([C@@H]2C[C@]3(C[C@H](C)N2)OCCc2cc(Cl)sc23)c1 (racemic) [Compound 139] | > 0.5 | 98.3 | 98.0 | 0.05 to 0.5
26 | C[C@H]1C[C@@]2(C[C@@H](c3cnc(C4CCOCC4)o3)N1)OCCc1cc(Cl)sc12 (racemic) [Compound 140] | 0.05 to 0.5 | 102 | 99.7 | 0.05 to 0.5
27 | C[C@H]1C[C@@]2(C[C@@H](c3cccc4[nH]c(=O)oc34)N1)OCCc1cc(Cl)sc12 (racemic) [Compound 141] | 0.05 to 0.5 | 90 | – | 0.05 to 0.5
28 | Cc1nn(C)cc1[C@@H]1C[C@]2(C[C@H](C)N1)OCCc1cc(Cl)sc12 (racemic) [Compound 142] | 0.05 to 0.5 | 83.7 | 99.0 | 0.05 to 0.5
29 | Cc1nc([C@@H]2C[C@]3(C[C@H](C)N2)OCCc2cc(Cl)sc23)oc1C (racemic) [Compound 144] | 0.05 to 0.5 | 102 | 98.0 | 0.05 to 0.5
30 | COc1ccnc([C@@H]2C[C@]3(C[C@H](C)N2)OCCc2cc(Cl)sc23)n1 (racemic) [Compound 145] | 0.05 to 0.5 | 88 | – | 0.05 to 0.5
31 | C[C@H]1C[C@@]2(C[C@@H](c3cccc(S(C)(=O)=O)c3)N1)OCCc1cc(Cl)sc12 (racemic) [Compound 146] | 0.05 to 0.5 | 88 | – | 0.05 to 0.5
32 | C[C@H]1C[C@@]2(C[C@@H](c3cccc(S(N)(=O)=O)c3)N1)OCCc1cc(Cl)sc12 (racemic) [Compound 147] | 0.05 to 0.5 | 93.5 | – | 0.05 to 0.5
